From patent publication US20080318947A1, “Inhibitors of Akt Activity” (priority 2005, published 2008)

What was measured:
Assay in all cases: AKT enzyme assay (substrate phosphorylation, SPA)
Format in all cases: biochemical
[1] = target: T1, AKT1 (Homo sapiens, UniProt P31749); conditions: 10 nM activated AKT enzyme, 4 uM ATP, 8 uM peptide, 40 minutes at room temperature; read-out: IC50 value against AKT1
T1 construct: Insect cells expressing His-tagged AKT1 (aa 136-480) are lysed; His; made in house; host or cells: insect cells
Procedure: Cell debris are removed by centrifuging at 28,000×g for 30 minutes. The supernatant is filtered through a […] filter then loaded onto a nickel-chelating column pre-equilibrated with lysis buffer. The column is washed with 5 column volumes (CV) of lysis buffer then with 5 CV of 20% buffer B, where buffer B is 25 mM HEPES, 100 mM NaCl, 300 mM imidazole; pH 7.5. […] The sample is then chromatographed over a Q-Sepharose HP column pre-equilibrated with buffer C. The column is washed with 5 CV of buffer C then step eluted with 5 CV 10% D, 5 CV 20% D, 5 CV 30% D, 5 CV 50% D and 5 CV of 100% D; where buffer D is 25 mM HEPES, 1000 mM NaCl; pH 7.5. […] The protein is pooled, concentrated and frozen at −80 C.
(§1) Compounds of the present invention are tested for AKT 1, 2, and 3 protein serine kinase inhibitory activity in substrate phosphorylation assays. This assay examines the ability of small molecule organic compounds to inhibit the serine phosphorylation of a peptide substrate. The substrate phosphorylation assays use the catalytic domains of AKT 1, 2, or 3. AKT 1, 2 and 3 are also commercially available from Upstate USA, Inc. The method measures the ability of the isolated enzyme to catalyze the transfer of the gamma-phosphate from ATP onto the serine residue of a biotinylated synthetic peptide SEQ. ID NO: 5 (Biotin-ahx-[…]-amide). Substrate phosphorylation is detected by the following procedure:
(§2) Assays are performed in 384 well U-bottom white plates. […] ATP/well, 1 mM CHAPS, 2 mM DTT, and 1 ul of test compound in 100% DMSO. The reaction is stopped by the addition of 50 ul SPA bead mix (Dulbecco's PBS without Mg^2+ and Ca^2+, 0.1% Triton X-100, 5 mM EDTA, 50 uM ATP, 2.5 mg/ml Streptavidin-coated SPA beads.) The plate is sealed, the beads are allowed to settle overnight, and then the plate is counted in a Packard Topcount Microplate Scintillation Counter (Packard Instrument Co., Meriden, Conn.).
(§3) The data for dose responses are plotted as % Control calculated with the data reduction formula 100*(U1−C2)/(C1−C2) versus concentration of compound where U is the unknown value, C1 is the average control value obtained for DMSO, and C2 is the average control value obtained for 0.1M EDTA. Data are fitted to the curve described by: y=((Vmax*x)/(K+x)) where Vmax is the upper asymptote and K is the IC50.

[2] = target: T2, AKT2 (Homo sapiens, UniProt P31751); conditions: 10 nM activated AKT enzyme, 4 uM ATP, 8 uM peptide, 40 minutes at room temperature; read-out: IC50 value against AKT2
T2 construct: His-tagged AKT2 (aa 138-481) and His-tagged AKT3 (aa 135-479) are isolated; His; made in house; host or cells: insect cells (by 'similar fashion' to AKT1)
Procedure: as §1, §2, §3

[3] = target: T3, AKT3 (Homo sapiens, UniProt Q9Y243); conditions: 10 nM activated AKT enzyme, 4 uM ATP, 8 uM peptide, 40 minutes at room temperature; read-out: IC50 value against AKT3
T3 construct: His-tagged AKT3 (aa 135-479) are isolated and purified in a similar fashion; His; made in house; host or cells: insect cells (by 'similar fashion' to AKT1)
Procedure: as §1, §2, §3

T2 sequence (P31751 138-481): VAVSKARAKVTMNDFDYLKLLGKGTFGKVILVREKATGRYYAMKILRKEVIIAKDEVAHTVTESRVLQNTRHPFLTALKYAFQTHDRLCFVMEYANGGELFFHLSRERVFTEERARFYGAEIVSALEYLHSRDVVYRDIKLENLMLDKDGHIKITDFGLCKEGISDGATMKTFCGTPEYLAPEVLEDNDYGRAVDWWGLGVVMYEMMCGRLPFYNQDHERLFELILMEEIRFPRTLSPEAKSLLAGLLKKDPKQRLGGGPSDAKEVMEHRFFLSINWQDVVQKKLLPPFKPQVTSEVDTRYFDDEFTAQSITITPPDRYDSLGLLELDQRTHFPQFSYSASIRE
T1 sequence (P31749 136-480): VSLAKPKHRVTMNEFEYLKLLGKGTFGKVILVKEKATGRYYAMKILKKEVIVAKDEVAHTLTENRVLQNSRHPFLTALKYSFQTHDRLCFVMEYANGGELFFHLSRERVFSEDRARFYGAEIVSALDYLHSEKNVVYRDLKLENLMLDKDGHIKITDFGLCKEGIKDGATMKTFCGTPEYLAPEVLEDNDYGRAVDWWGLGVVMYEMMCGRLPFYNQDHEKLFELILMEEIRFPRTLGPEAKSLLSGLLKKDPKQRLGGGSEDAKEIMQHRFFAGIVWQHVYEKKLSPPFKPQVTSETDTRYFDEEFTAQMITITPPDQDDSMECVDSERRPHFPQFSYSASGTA
T3 sequence (Q9Y243 135-479): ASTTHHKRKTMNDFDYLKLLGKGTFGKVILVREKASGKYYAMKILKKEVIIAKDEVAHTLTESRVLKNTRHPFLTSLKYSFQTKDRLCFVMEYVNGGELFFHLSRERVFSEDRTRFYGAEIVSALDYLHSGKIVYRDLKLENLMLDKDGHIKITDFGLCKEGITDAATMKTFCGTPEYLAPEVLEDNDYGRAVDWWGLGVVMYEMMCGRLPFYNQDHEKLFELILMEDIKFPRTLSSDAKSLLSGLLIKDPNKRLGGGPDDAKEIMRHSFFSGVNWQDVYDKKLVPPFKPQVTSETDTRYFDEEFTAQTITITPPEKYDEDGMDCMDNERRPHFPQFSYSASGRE

Compound | IC50 [1] [nM] | IC50 [2] [nM] | IC50 [3] [nM]
CCn1c(-c2nonc2N)nc2c(C#CC(C)(C)O)nc(OC(CN)c3cccc(Cl)c3)cc21 (centres unmarked) [Example 151, 4-[6-{[2-amino-1-(3-chlorophenyl)ethyl]oxy}-2-(4-amino-1,2,5-oxadiazol-3-yl)-1-ethyl-1H-imidazo[4,5-c]pyridin-4-yl]-2-methyl-3-butyn-2-ol] | ≤ 500 | ≤ 500 | ≤ 500
CCn1c(-c2nonc2N)nc2c(C#CC(C)(C)O)nc(OC(CN)c3cccc(OC)c3)cc21 (centres unmarked) [Example 132, 4-[6-({2-amino-1-[3-(methyloxy)phenyl]ethyl}oxy)-2-(4-amino-1,2,5-oxadiazol-3-yl)-1-ethyl-1H-imidazo[4,5-c]pyridin-4-yl]-2-methyl-3-butyn-2-ol] | ≤ 500 | ≤ 500 | ≤ 500
CCn1c(-c2nonc2N)nc2c(C#CC(C)(C)O)nc(O[C@@H](CN)c3ccccc3)cc21 [Example 86, 4-(2-(4-amino-1,2,5-oxadiazol-3-yl)-6-{[(1R)-2-amino-1-phenylethyl]oxy}-1-ethyl-1H-imidazo[4,5-c]pyridin-4-yl)-2-methyl-3-butyn-2-ol] | – | – | ≤ 500
CCn1c(-c2nonc2N)nc2c(C#CC(C)(C)O)nc(OC(CN)c3ccccc3Cl)cc21 (centres unmarked) [Example 152, 4-[6-{[2-amino-1-(2-chlorophenyl)ethyl]oxy}-2-(4-amino-1,2,5-oxadiazol-3-yl)-1-ethyl-1H-imidazo[4,5-c]pyridin-4-yl]-2-methyl-3-butyn-2-ol] | ≤ 500 | ≤ 500 | ≤ 500
CCn1c(-c2nonc2N)nc2c(C#CC(C)(C)O)nc(OC(CN)Cc3ccccc3)cc21 (centres unmarked) [Example 106, 4-(2-(4-amino-1,2,5-oxadiazol-3-yl)-6-{[2-amino-1-(phenylmethyl)ethyl]oxy}-1-ethyl-1H-imidazo[4,5-c]pyridin-4-yl)-2-methyl-3-butyn-2-ol] | ≤ 500 | ≤ 500 | ≤ 500
CCn1c(-c2nonc2N)nc2c(C#CC(C)(C)O)nc(O[C@@H](CCN)c3ccccc3)cc21 [Example 108, 4-(2-(4-amino-1,2,5-oxadiazol-3-yl)-6-{[(1S)-3-amino-1-phenylpropyl]oxy}-1-ethyl-1H-imidazo[4,5-c]pyridin-4-yl)-2-methyl-3-butyn-2-ol] | – | – | ≤ 500
CCn1c(-c2nonc2N)nc2c(C#CC(C)(C)O)nc(O[C@@H](c3ccccc3)[C@H]3CCCN3)cc21 [Example 117, 4-[2-(4-amino-1,2,5-oxadiazol-3-yl)-1-ethyl-6-([(S)-phenyl[(2R)-2-pyrrolidinyl]methyl]oxy)-1H-imidazo[4,5-c]pyridin-4-yl]-2-methyl-3-butyn-2-ol] | ≤ 500 | ≤ 500 | ≤ 500
CCn1c(-c2nonc2N)nc2c(C#CC(C)(C)O)nc(OC(CN)c3ccccc3)cc21 (centres unmarked) [Example 77, 4-{2-(4-amino-1,2,5-oxadiazol-3-yl)-6-[(2-amino-1-phenylethyl)oxy]-1-ethyl-1H-imidazo[4,5-c]pyridin-4-yl}-2-methyl-3-butyn-2-ol] | – | – | ≤ 500

Results, then the compound that gave them:

IC50 [1] [nM] | IC50 [2] [nM] | IC50 [3] [nM] | Compound
≤ 500 | ≤ 500 | ≤ 500 | CCn1c(-c2nonc2N)nc2c(C#CC(C)(C)O)nc(OC(CN)C3CCCCC3)cc21 (single isomer, unassigned) [Example 123, 4-[6-[(2-amino-1-cyclohexylethyl)oxy]-2-(4-amino-1,2,5-oxadiazol-3-yl)-1-ethyl-1H-imidazo[4,5-c]pyridin-4-yl]-2-methyl-3-butyn-2-ol]
≤ 500 | – | ≤ 500 | CCn1c(-c2nonc2N)nc2c(C#CC(C)(C)O)nc(OC[C@H](N)Cc3ccccc3)cc21 [Example 43, 4-(2-(4-amino-1,2,5-oxadiazol-3-yl)-6-{[(2R)-2-amino-3-phenylpropyl]oxy}-1-ethyl-1H-imidazo[4,5-c]pyridin-4-yl)-2-methyl-3-butyn-2-ol]
≤ 500 | ≤ 500 | ≤ 500 | CCn1c(-c2nonc2N)nc2c(C#CC(C)(C)O)nc(OC[C@H](N)Cc3ccccc3Cl)cc21 [Example 143, 4-[6-{[(2R)-2-amino-3-(2-chlorophenyl)propyl]oxy}-2-(4-amino-1,2,5-oxadiazol-3-yl)-1-ethyl-1H-imidazo[4,5-c]pyridin-4-yl]-2-methyl-3-butyn-2-ol]
≤ 500 | ≤ 500 | ≤ 500 | CCn1c(-c2nonc2N)nc2c(C#CC(C)(C)O)nc(OC(CN)c3cccc4c3OCO4)cc21 (racemic) [Example 92, 4-[6-{[2-amino-1-(1,3-benzodioxol-4-yl)ethyl]oxy}-2-(4-amino-1,2,5-oxadiazol-3-yl)-1-ethyl-1H-imidazo[4,5-c]pyridin-4-yl]-2-methyl-3-butyn-2-ol]
≤ 500 | ≤ 500 | ≤ 500 | CCn1c(-c2nonc2N)nc2c(C#CC(C)(C)O)nc(OC(CN)c3cccc4c3OCO4)cc21 (single isomer, unassigned) [Example 93, 4-[6-{[2-amino-1-(1,3-benzodioxol-4-yl)ethyl]oxy}-2-(4-amino-1,2,5-oxadiazol-3-yl)-1-ethyl-1H-imidazo[4,5-c]pyridin-4-yl]-2-methyl-3-butyn-2-ol]
